Experimental data as given in the supplement of paper PMC10627819.

How the values were obtained:
Conditions in all cases: main component drawn
S. aureus Newman [1] = test: fitness (endpoint OD595 vs no drug) (fraction); higher = more growth
Summary of the method: (§1)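 Each well of a 384-well plate received 30 µl of culture at OD595 0.01, or 55 µl for S. pneumoniae. TSB, LB Lennox or CY served as media at 37 °C. OD595 was taken every 30 min for 14 h and corrected by subtracting the first reading. Fitness is the optical density at stationary-phase entry divided by the robust mean of no-drug controls, capped at 1.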

B. subtilis 168 [2] = test: as above
Summary of the method: as §1

S. pneumoniae D39V [3] = test: as above
Summary of the method: as §1

S. aureus DSM 20231 = test: Bliss interaction score (quartile over a dose matrix) (fitness difference); higher = more antagonism (negative = synergy)
Summary of the method: (§2)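 The Bliss score is observed minus expected fitness, where expected fitness is the product of the single-drug fitness values inferred from the combination data. Fitness is the OD595 at the onset of stationary phase over the plate's robust no-drug mean, capped at 1. Scores are summarised by quartiles over technical, biological and donor/recipient replicates.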

S. aureus Newman [4] = test: as above
Summary of the method: as §2

B. subtilis 168 [5] = test: as above
Summary of the method: as §2

S. pneumoniae D39V [6] = test: as above
Summary of the method: as §2
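Wherever Bliss interaction score (quartile over a dose matrix) is given: first quartile when negative (synergy) and third quartile when positive (antagonism).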

CNC(C)C1CCC(N)C(OC2C(N)CC(N)C(OC3OCC(C)(O)C(NC)C3O)C2O)O1 (centres undefined) [Gentamicin] + Cc1ncc([N+](=O)[O-])n1CCO [Metronidazole]
fitness, S. aureus Newman [1], one replicate
Conditions | first compound 0.375 µg/mL | first compound 0.75 µg/mL | first compound 1.5 µg/mL
partner 0.625 µg/mL | 0.94 | 0.944 | 0.951
partner 1.25 µg/mL | ≥ 1 | ≥ 1 | ≥ 1
partner 2.5 µg/mL | ≥ 1 | ≥ 1 | ≥ 1

fitness
Conditions | partner 0.625 µg/mL | partner 0.781 µg/mL | partner 1.073 µg/mL | partner 1.25 µg/mL | partner 1.562 µg/mL | partner 2.145 µg/mL | partner 2.5 µg/mL | partner 3.124 µg/mL | partner 4.29 µg/mL | partner 5 µg/mL
B. subtilis 168 [2], first compound 0.0625 µg/mL | 0.897 | – | – | 0.926 | – | – | 0.922 | – | – | –
B. subtilis 168 [2], first compound 0.25 µg/mL | 0.0729 | – | – | – | – | – | 0.0383 | – | – | –
S. aureus Newman [1], first compound 0.5 µg/mL | 0.995 | 0.92 | – | 0.979 | 0.911 | – | ≥ 1 | 0.913 | – | –
S. aureus Newman [1], first compound 1 µg/mL | ≥ 1 | ≥ 1 | – | 0.974 | ≥ 1 | – | 0.986 | ≥ 1 | – | –
S. aureus Newman [1], first compound 2 µg/mL | ≥ 1 | ≥ 1 | – | 0.981 | ≥ 1 | – | ≥ 1 | ≥ 1 | – | –
S. pneumoniae D39V [3], first compound 2 µg/mL | – | – | 0.983 | 0.985 | – | 0.864 | ≥ 1 | – | 0.8 | 0.996
S. pneumoniae D39V [3], first compound 4 µg/mL | – | – | 0.976 | 0.992 | – | 0.987 | ≥ 1 | – | 0.827 | 0.986
S. pneumoniae D39V [3], first compound 8 µg/mL | – | – | 0.98 | 0.955 | – | 0.96 | 0.959 | – | 0.942 | 0.959

Conditions | Bliss interaction score
B. subtilis 168 [5] | -0.0531
S. aureus DSM 20231 | 0.0225
S. aureus Newman [4] | 0.0412
S. pneumoniae D39V [6] | 0.0587
